Reference: patent US20200017495A1, “NOVEL HETEROCYCLIC COMPOUNDS AND THEIR USE IN PREVENTING OR TREATING BACTERIAL INFECTIONS” (priority 2017, published 2020)

How the values were obtained:
[1] = tested on: Serratia marcescens (SMA) isolates; test: MIC of compounds alone and combined with antibacterials, broth microdilution (CLSI); assay type: cell-based
Procedure, shortened: (§1)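 First, log-phase suspensions are brought to 5.10^5 CFU/mL final in ca-MHB; plates then incubate 16-20 h at 35° C in air. Growth is judged visually, giving the compound MIC alone and the antibacterial MIC at each compound concentration.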

[2] = tested on: Escherichia coli (ECO) isolates; test: as above; assay type: cell-based
Procedure, shortened: as §1

With C=CC1=C(C(=O)O)N2C(=O)[C@@H](NC(=O)/C(=N\OCC(=O)O)c3csc(N)n3)[C@H]2SC1 [FIX, Cefixime] the “MIC ATB in combination” value ([1]; SMA UFR30, AF2 @ 8 μg/mL) was 0.5 µg/mL, the “MIC ATB in combination” value ([1]; SMA UFR30, AF3 @ 8 μg/mL) was “<=0.25 μg/mL” and the “MIC ATB in combination” value ([1]; SMA UFR30, CLA @ 4 μg/mL) was 1 µg/mL. The “MIC ATB in combination” value ([1]; SMA UFR134, AF2 @ 8 μg/mL) was 0.5 µg/mL, the “MIC ATB in combination” value ([1]; SMA UFR134, AF3 @ 8 μg/mL) was “<=0.25 μg/mL” and the “MIC ATB in combination” value ([1]; SMA UFR134, CLA @ 4 μg/mL) was 32 µg/mL. For the same compound, the “MIC ATB in combination” value ([1]; SMA UFR135, AF2 @ 8 μg/mL) was 2 µg/mL, the “MIC ATB in combination” value ([1]; SMA UFR135, AF3 @ 8 μg/mL) was 2 µg/mL and the “MIC ATB in combination” value ([1]; SMA UFR135, CLA @ 4 μg/mL) was 32 µg/mL. For the same compound, the “MIC ATB in combination” value ([1]; SMA UFR136, AF2 @ 8 μg/mL) was 4 µg/mL, the “MIC ATB in combination” value ([1]; SMA UFR136, AF3 @ 8 μg/mL) was 4 µg/mL and the “MIC ATB in combination” value ([1]; SMA UFR136, CLA @ 4 μg/mL) was over 128 µg/mL. The “MIC ATB in combination” value ([1]; SMA UFR137, AF2 @ 8 μg/mL) was “<=0.25 μg/mL”, the “MIC ATB in combination” value ([1]; SMA UFR137, AF3 @ 8 μg/mL) was “<=0.25 μg/mL” and the “MIC ATB in combination” value ([1]; SMA UFR137, CLA @ 4 μg/mL) was 1 µg/mL. For the same compound, the “MIC ATB in combination” value ([1]; SMA UFR138, AF2 @ 8 μg/mL) was “<=0.25 μg/mL”, the “MIC ATB in combination” value ([1]; SMA UFR138, AF3 @ 8 μg/mL) was “<=0.25 μg/mL” and the “MIC ATB in combination” value ([1]; SMA UFR138, CLA @ 4 μg/mL) was 0.5 µg/mL. For the same compound, the “MIC ATB in combination” value ([1]; SMA UFR139, AF2 @ 8 μg/mL) was 1 µg/mL, the “MIC ATB in combination” value ([1]; SMA UFR139, AF3 @ 8 μg/mL) was “<=0.25 μg/mL” and the “MIC ATB in combination” value ([1]; SMA UFR139, CLA @ 4 μg/mL) was 2 µg/mL. For the same compound, the “MIC ATB in combination” value ([1]; SMA UFR141, AF2 @ 8 μg/mL) was “<=0.25 μg/mL”, the “MIC ATB in combination” value ([1]; SMA UFR141, AF3 @ 8 μg/mL) was 0.5 µg/mL and the “MIC ATB in combination” value ([1]; SMA UFR141, CLA @ 4 μg/mL) was 0.5 µg/mL. For the same compound, the “MIC ATB in combination” value ([1]; SMA UFR142, AF2 @ 8 μg/mL) was 0.5 µg/mL, the “MIC ATB in combination” value ([1]; SMA UFR142, AF3 @ 8 μg/mL) was 1 µg/mL and the “MIC ATB in combination” value ([1]; SMA UFR142, CLA @ 4 μg/mL) was 2 µg/mL. For the same compound, the “MIC ATB in combination” value ([1]; SMA UFR143, AF2 @ 8 μg/mL) was “<=0.25 μg/mL”, the “MIC ATB in combination” value ([1]; SMA UFR143, AF3 @ 8 μg/mL) was “<=0.25 μg/mL” and the “MIC ATB in combination” value ([1]; SMA UFR143, CLA @ 4 μg/mL) was 64 µg/mL. For the same compound, the “MIC ATB in combination” value ([1]; SMA UFR239, AF2 @ 8 μg/mL) was 0.25 µg/mL, the “MIC ATB in combination” value ([1]; SMA UFR239, AF3 @ 8 μg/mL) was “<=0.25 μg/mL” and the “MIC ATB in combination” value ([1]; SMA UFR239, CLA @ 4 μg/mL) was 2 µg/mL. The MIC ([1]; strain SMA UFR30, genotype OXA-405) was 1 µg/mL, the MIC ([1]; strain SMA UFR134, genotype TEM-1, BES-1) was over 128 µg/mL and the MIC ([1]; strain SMA UFR135, genotype TEM-1, KPC-2) was 64 µg/mL. The MIC ([1]; strain SMA UFR136, genotype TEM-1, SHV-12, KPC-2) was over 128 µg/mL, the MIC ([1]; strain SMA UFR137, genotype SME-1) was 0.5 µg/mL and the MIC ([1]; strain SMA UFR138, genotype SME-1) was 0.5 µg/mL. For the same compound, the MIC ([1]; strain SMA UFR139, genotype SME-2) was 1 µg/mL, the MIC ([1]; strain SMA UFR140, genotype IMP-1) was over 128 µg/mL and the “MIC ATB in combination” value ([1]; strain SMA UFR140, with AF2 @ 8 μg/mL) was over 128 µg/mL. For the same compound, the “MIC ATB in combination” value ([1]; strain SMA UFR140, with AF3 @ 8 μg/mL) was over 128 µg/mL, the “MIC ATB in combination” value ([1]; strain SMA UFR140, with CLA @ 4 μg/mL) was over 128 µg/mL and the MIC ([1]; strain SMA UFR141, genotype OXA-48) was 2 µg/mL. For the same compound, the MIC ([1]; strain SMA UFR142, genotype OXA-48) was 2 µg/mL, the MIC ([1]; strain SMA UFR143, compound alone) was 512 µg/mL and the MIC ([1]; strain SMA UFR143, genotype CTX-M-15, OXA-1, OXA-48) was 512 µg/mL. For the same compound, the MIC ([1]; strain SMA UFR238, genotype OXA-48) was 1 µg/mL, the “MIC ATB in combination” value ([1]; strain SMA UFR238, with AF2 @ 8 μg/mL) was 0.5 µg/mL and the “MIC ATB in combination” value ([1]; strain SMA UFR238, with AF3 @ 8 μg/mL) was 0.5 µg/mL. For the same compound, the “MIC ATB in combination” value ([1]; strain SMA UFR238, with CLA @ 4 μg/mL) was 2 µg/mL, the MIC ([1]; strain SMA UFR239, genotype ESAC) was 2 µg/mL and the “MIC ATB in combination” value ([2]; ECO 4133, AF2 @ 8 μg/mL) was under 0.25 µg/mL. For the same compound, the “MIC ATB in combination” value ([2]; ECO 4133, AF3 @ 8 μg/mL) was under 0.25 µg/mL, the “MIC ATB in combination” value ([2]; ECO 4133, CLA @ 4 μg/mL) was 0.5 µg/mL and the “MIC ATB in combination” value ([2]; ECO 5302, AF2 @ 8 μg/mL) was under 0.25 µg/mL. For the same compound, the “MIC ATB in combination” value ([2]; ECO 5302, AF3 @ 8 μg/mL) was under 0.25 µg/mL, the “MIC ATB in combination” value ([2]; ECO 5302, CLA @ 4 μg/mL) was 0.5 µg/mL and the “MIC ATB in combination” value ([2]; ECO 131119, AF2 @ 8 μg/mL) was under 0.25 µg/mL. For the same compound, the “MIC ATB in combination” value ([2]; ECO 131119, AF3 @ 8 μg/mL) was under 0.25 µg/mL, the “MIC ATB in combination” value ([2]; ECO 131119, CLA @ 4 μg/mL) was “<=0.25 μg/mL” and the “MIC ATB in combination” value ([2]; ECO 180070, AF2 @ 8 μg/mL) was under 0.25 µg/mL. The “MIC ATB in combination” value ([2]; ECO 180070, AF3 @ 8 μg/mL) was under 0.25 µg/mL, the “MIC ATB in combination” value ([2]; ECO 180070, CLA @ 4 μg/mL) was 2 µg/mL and the “MIC ATB in combination” value ([2]; ECO 190314, AF2 @ 8 μg/mL) was under 0.25 µg/mL. For the same compound, the “MIC ATB in combination” value ([2]; ECO 190314, AF3 @ 8 μg/mL) was under 0.25 µg/mL, the “MIC ATB in combination” value ([2]; ECO 190314, CLA @ 4 μg/mL) was 2 µg/mL and the “MIC ATB in combination” value ([2]; ECO 190317, AF2 @ 8 μg/mL) was under 0.25 µg/mL. The “MIC ATB in combination” value ([2]; ECO 190317, AF3 @ 8 μg/mL) was under 0.25 µg/mL, the “MIC ATB in combination” value ([2]; ECO 190317, CLA @ 4 μg/mL) was 0.5 µg/mL and the “MIC ATB in combination” value ([2]; ECO 190457, AF2 @ 8 μg/mL) was under 0.25 µg/mL. The “MIC ATB in combination” value ([2]; ECO 190457, AF3 @ 8 μg/mL) was under 0.25 µg/mL, the “MIC ATB in combination” value ([2]; ECO 190457, CLA @ 4 μg/mL) was 0.5 µg/mL and the “MIC ATB in combination” value ([2]; ECO 190549, AF2 @ 8 μg/mL) was under 0.25 µg/mL. The “MIC ATB in combination” value ([2]; ECO 190549, AF3 @ 8 μg/mL) was under 0.25 µg/mL, the “MIC ATB in combination” value ([2]; ECO 190549, CLA @ 4 μg/mL) was 0.5 µg/mL and the “MIC ATB in combination” value ([2]; ECO 200159, AF2 @ 8 μg/mL) was under 0.25 µg/mL. The “MIC ATB in combination” value ([2]; ECO 200159, AF3 @ 8 μg/mL) was under 0.25 µg/mL, the “MIC ATB in combination” value ([2]; ECO 200159, CLA @ 4 μg/mL) was “<=0.25 μg/mL” and the “MIC ATB in combination” value ([2]; ECO 200259, AF2 @ 8 μg/mL) was under 0.25 µg/mL. The “MIC ATB in combination” value ([2]; ECO 200259, AF3 @ 8 μg/mL) was under 0.25 µg/mL, the “MIC ATB in combination” value ([2]; ECO 200259, CLA @ 4 μg/mL) was “<=0.25 μg/mL” and the “MIC ATB in combination” value ([2]; ECO 200344, AF2 @ 8 μg/mL) was under 0.25 µg/mL. For the same compound, the “MIC ATB in combination” value ([2]; ECO 200344, AF3 @ 8 μg/mL) was “<=0.25 μg/mL”, the “MIC ATB in combination” value ([2]; ECO 200344, CLA @ 4 μg/mL) was 0.5 µg/mL and the “MIC ATB in combination” value ([2]; ECO 260096, AF2 @ 8 μg/mL) was “<=0.25 μg/mL”. For the same compound, the “MIC ATB in combination” value ([2]; ECO 260096, AF3 @ 8 μg/mL) was “<=0.25 μg/mL”, the “MIC ATB in combination” value ([2]; ECO 260096, CLA @ 4 μg/mL) was 1 µg/mL and the “MIC ATB in combination” value ([2]; ECO 260304, AF2 @ 8 μg/mL) was under 0.25 µg/mL. The “MIC ATB in combination” value ([2]; ECO 260304, AF3 @ 8 μg/mL) was under 0.25 µg/mL, the “MIC ATB in combination” value ([2]; ECO 260304, CLA @ 4 μg/mL) was 0.5 µg/mL and the “MIC ATB in combination” value ([2]; ECO 260508, AF2 @ 8 μg/mL) was under 0.25 µg/mL. For the same compound, the “MIC ATB in combination” value ([2]; ECO 260508, AF3 @ 8 μg/mL) was under 0.25 µg/mL, the “MIC ATB in combination” value ([2]; ECO 260508, CLA @ 4 μg/mL) was 0.5 µg/mL and the “MIC ATB in combination” value ([2]; ECO RGN238, AF2 @ 8 μg/mL) was under 0.25 µg/mL. The “MIC ATB in combination” value ([2]; ECO RGN238, AF3 @ 8 μg/mL) was under 0.25 µg/mL, the “MIC ATB in combination” value ([2]; ECO RGN238, CLA @ 4 μg/mL) was “<=0.25 μg/mL” and the “MIC ATB in combination” value ([2]; ECO UFR15, AF2 @ 8 μg/mL) was under 0.25 µg/mL.
